Measured values taken from paper PMC10982093, “Identifying and characterising promising small molecule inhibitors of kinesin spindle protein using ligand-based virtual screening, molecular docking, molecular dynamics and MM‑GBSA calculations” (Journal of Computer-Aided Molecular Design, 2024).

Tests used:
Eg5 ATPase = target: T1, Eg5 ATPase (Homo sapiens, UniProt P52732); assay: Microtubule-activated Eg5 ATPase inhibition assay (Kinesin ELISA kit BK060); assay type: biochemical; conditions: for inhibition at 10 µM: mean of 3 replicates
T1 construct: purchased Cytoskeleton, Inc BK060
T1 sequence (P52732 1-1056): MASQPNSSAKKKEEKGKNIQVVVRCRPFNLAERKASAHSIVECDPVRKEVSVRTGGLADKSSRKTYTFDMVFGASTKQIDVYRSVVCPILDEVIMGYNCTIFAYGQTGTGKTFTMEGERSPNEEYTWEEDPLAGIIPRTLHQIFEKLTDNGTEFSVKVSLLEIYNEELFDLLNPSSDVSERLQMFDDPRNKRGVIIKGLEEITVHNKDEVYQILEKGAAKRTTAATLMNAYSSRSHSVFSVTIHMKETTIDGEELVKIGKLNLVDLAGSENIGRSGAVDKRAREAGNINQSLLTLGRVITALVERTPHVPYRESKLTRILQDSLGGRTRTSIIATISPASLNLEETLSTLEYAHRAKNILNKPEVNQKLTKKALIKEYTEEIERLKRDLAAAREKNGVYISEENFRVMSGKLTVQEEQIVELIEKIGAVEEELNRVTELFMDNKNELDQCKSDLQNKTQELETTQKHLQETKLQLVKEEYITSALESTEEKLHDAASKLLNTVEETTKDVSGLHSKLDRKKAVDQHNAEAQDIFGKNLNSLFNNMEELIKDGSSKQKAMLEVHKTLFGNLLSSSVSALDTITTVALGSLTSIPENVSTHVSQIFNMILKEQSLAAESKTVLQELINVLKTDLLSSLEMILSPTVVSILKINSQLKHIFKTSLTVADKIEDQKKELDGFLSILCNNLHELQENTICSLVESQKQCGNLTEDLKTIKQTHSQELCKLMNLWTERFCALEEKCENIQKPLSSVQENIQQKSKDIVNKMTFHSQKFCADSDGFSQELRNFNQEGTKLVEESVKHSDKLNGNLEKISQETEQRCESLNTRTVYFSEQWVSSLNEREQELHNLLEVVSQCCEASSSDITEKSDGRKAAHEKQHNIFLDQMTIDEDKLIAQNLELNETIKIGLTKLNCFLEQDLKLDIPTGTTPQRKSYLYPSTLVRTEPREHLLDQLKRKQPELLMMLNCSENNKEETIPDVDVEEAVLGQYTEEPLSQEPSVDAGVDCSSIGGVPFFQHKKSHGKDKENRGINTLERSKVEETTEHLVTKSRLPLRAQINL
Procedure: Microtubule (MT)-activated enzymatic Eg5-ATPase activity were measured in order to evaluate the inhibitory activity of the selected compounds at […]. The MT—ATPase activity was analysed using Kinesin ELISA kit (BK060) (Cytoskeleton, Inc) and Monastrol was used as a control. The procedures were applied according to the manufacturer’s instructions. The IC50 of compound 5 which were required for inhibiting 50% of Eg5 ATPase activity was measured using ELISA kit (BK060) (Cytoskeleton, Inc, Denver, CO) according to the manufacturer’s instructions.
The Eg5 ATPase activity of the six hits at 10 µM was investigated in comparison to Monastrol (10 µM), as it acted as a positive control compound. […] Similarly compounds 1, 3 and 4 caused 40, 35 and 30% inhibition activity respectively.

Hela cells = assay: Immunofluorescence assay, inhibition of mitotic spindle formation; assay type: cell-based; conditions: 10 µM, 24 h, tubulin immunofluorescence
Procedure: […] Monastrol was used as a positive control, while 0.1% DMSO was used as a negative control. The cells were rinsed with PBS, fixed with 3.7% paraformaldehyde, and permeabilized with 0.1% Triton X-100. The cells were blocked with 1% BSA in PBS for 1 h prior to incubation with anti-β-tubulin mouse monoclonal antibody (#86,298, Cell Signaling, San Francisco, CA, USA) overnight at 4 °C. The cells were washed with PBS for 1 h in the dark, and then incubated with Alexa Fluor® 488 secondary antibodies (Abcam).
Further investigation of compound 5 was performed, which consisted of an immunofluorescence assay that was used to analyse the mechanism of compound 5 on the organisation of the microtubules into mitotic spindles during divisions of the cells.

Eg5 protein = target: Eg5 protein; design: method as in PMID 35251692; conditions: read-out: Ki against Eg5 protein; cited from earlier work

SMILES | inhibition at 10 µM (Eg5 ATPase) | further results
COc1ccc(CNc2nc3cc(C(=O)O)ccc3n2Cc2ccccc2C(F)(F)F)cc1 [Compound 1, 1-(2-(trifluoromethyl)benzyl)-2-(4-methoxybenzylamino)-1H-benzo[d]imidazole-5-carboxylic acid] | 40% | –
CS(=O)(=O)c1ccc(CNc2nc3cc(C(=O)O)ccc3n2Cc2ccccc2C(F)(F)F)cc1 [Compound 6, 1-(2-(trifluoromethyl)benzyl)-2-(4-(methylsulfonyl)benzylamino)-1H-benzo[d]imidazole-5-carboxylic acid] | ~25% | –
O=C1CCc2cc(-c3ccc(C(F)(F)F)cc3)ccc2N1 [GSK-1] | – | Ki (Eg5 protein): 1.8 nM
NC(=O)Nc1ccc(-c2ccc(C(F)(F)F)cc2)cc1F [GSK-2] | – | Ki (Eg5 protein): 8.8 nM

The next lines start with results.

inhibition at 10 µM (Eg5 ATPase) | SMILES | further results
~25% | COc1ccc(C(=O)N2c3ccc(OC(=O)c4ccco4)cc3C(C)=CC2(C)C)cc1 [Compound 2, 1-(4-methoxybenzoyl)-2,2,4-trimethyl-1,2-dihydroquinolin-6-yl furan-2-carboxylate] | –
35% | COc1cc2nc(-c3cc(-c4ccccc4Cl)nc4ccccc34)[nH]c2cc1OC [Compound 3, 2-(2-chlorophenyl)-4-(5,6-dimethoxy-1H-benzo[d]imidazol-2-yl)quinoline] | –
30% | Cc1ccc(O)c(C(=O)c2cnc3c(c2)c(-c2ccc(F)cc2)c(C#N)c(=O)n3C)c1 [Compound 4, 4-(4-fluorophenyl)-6-(2-hydroxy-5-methylbenzoyl)-1-methyl-2-oxo-1,8-naphthyridine-3-carbonitrile] | –
50% | Cn1c(=O)[nH]c(=O)c2c1nc(NCCCn1ccnc1)n2Cc1ccc2ccccc2c1 [Compound 5, 8-(3-(1H-imidazol-1-yl)propylamino)-3-methyl-7-((naphthalen-3-yl)methyl)-1H-purine-2,6(3H,7H)-dione] | IC50 (Eg5 ATPase; read-out: IC50 against Eg5 ATPase): 2370 ± 150 nM; Mitotic spindle morphology (Hela cells): monopolar spindle profiles
60% | CCOC(=O)C1=C(C)NC(=S)NC1c1cccc(O)c1 (stereo not drawn) [Monastrol, reference compound] | Mitotic spindle morphology (Hela cells): monopolar spindle profiles
